Reference: patent US10517889B2, “Modulators of SMAD7 expression” (Ionis Pharmaceuticals, Inc., priority 2017, dated 2019)

Tested on: human SMAD7 mRNA
Test: Dose-dependent inhibition of human SMAD7 mRNA expression in Hep3B cells, comparison with ION 28453 (Example 4)
Format: cell-based
Settings: electroporation, approximately 16 hours
Procedure: Cells were plated at a density of 20,000 cells per well and transfected using electroporation with 0.25 μM, 0.74 μM, 2.22 μM, 6.67 μM, or 20.00 μM concentrations of antisense oligonucleotide, as specified in the Tables below. After a treatment period of approximately 16 hours, RNA was isolated from the cells and SMAD7 mRNA levels were measured by quantitative real-time PCR. Primer probe set RTS5062 was used to measure human SMAD7 mRNA levels. SMAD7 mRNA levels were adjusted according to total RNA content, as measured by RIBOGREEN®. Results are presented as percent inhibition of SMAD7 mRNa expression, relative to untreated control cells.
The half maximal inhibitory concentration (IC50) of each oligonucleotide is also presented. […] Several newly designed antisense oligonucleotides had greater potency than the previously disclosed lead compound, ION 28453.

Substance: 798781 (CGTAAGATTCACAGCA; 3-10-3 cEt gapmer, further chemistry not given here) [compound 798781]
- % inhibition of SMAD7 mRNA expression (0.25 μM): 12%
- % inhibition of SMAD7 mRNA expression (0.74 μM): 38%
- % inhibition of SMAD7 mRNA expression (2.22 μM): 66%
- % inhibition of SMAD7 mRNA expression (6.67 μM): 66%
- % inhibition of SMAD7 mRNA expression (20.00 μM): 87%
- IC50 (SMAD7 mRNA): 2000 nM
